Converted amounts (≈) assume the structure as drawn. The source made the active and inactive calls. The rule behind the calls is not given here.
Experiments:
Candida albicans [1] = assay: Antimicrobial activity against Candida albicans MTCC 183 by agar streak dilution method; assay type: functional
Aspergillus clavatus [2] = assay: Antimicrobial activity against Aspergillus clavatus MTCC 1323 by paper disk diffusion method; assay type: functional
Aspergillus niger [3] = assay: Antimicrobial activity against Aspergillus niger MTCC 282 by paper-disk diffusion method; assay type: functional
Aspergillus fumigatus [4] = assay: Antimicrobial activity against Aspergillus fumigatus MTCC 343 by paper-disk diffusion method; assay type: functional
Pseudomonas aeruginosa [5] = assay: Antimicrobial activity against Pseudomonas aeruginosa MTCC 741 at 100 ug/ml by paper disk diffusion method; assay type: functional, organism-based
Shigella flexneri [6] = assay: Antimicrobial activity against Shigella flexneri MTCC 1457 by paper disk diffusion method; assay type: functional
Proteus vulgaris [7] = assay: Antimicrobial activity against Proteus vulgaris MTCC 1771 by paper disk diffusion method; assay type: functional
Salmonella typhi [8] = assay: Antimicrobial activity against Salmonella enterica subsp. enterica serovar Typhi MTCC 733 by paper disk diffusion method; assay type: functional
Klebsiella pneumoniae [9] = assay: Antimicrobial activity against Klebsiella pneumoniae MTCC 109 by paper disk diffusion method; assay type: functional
Pseudomonas aeruginosa [10] = assay: Antimicrobial activity against Pseudomonas aeruginosa MTCC 741 by paper disk diffusion method; assay type: functional
Bacillus cereus [11] = assay: Antimicrobial activity against Bacillus cereus MTCC 619 by paper disk diffusion method; assay type: functional
Escherichia coli [12] = assay: Antimicrobial activity against Escherichia coli MTCC 739 by paper disk diffusion method; assay type: functional
Staphylococcus aureus [13] = assay: Antimicrobial activity against Staphylococcus aureus MTCC 96 by paper-disk diffusion method; assay type: functional
Aspergillus clavatus [14] = assay: Antimicrobial activity against Aspergillus clavatus MTCC 1323 by agar streak dilution method; assay type: functional
Aspergillus fumigatus [15] = assay: Antimicrobial activity against Aspergillus fumigatus MTCC 343 by agar streak dilution method; assay type: functional
Aspergillus niger [16] = assay: Antimicrobial activity against Aspergillus niger MTCC 282 by agar streak dilution method; assay type: functional
Proteus vulgaris [17] = assay: Antimicrobial activity against Proteus vulgaris MTCC 1771 by agar streak dilution method; assay type: functional
Shigella flexneri [18] = assay: Antimicrobial activity against Shigella flexneri MTCC 1457 by agar streak dilution method; assay type: functional
Klebsiella pneumoniae [19] = assay: Antimicrobial activity against Klebsiella pneumoniae MTCC 109 by agar streak dilution method; assay type: functional
Salmonella typhi [20] = assay: Antimicrobial activity against Salmonella enterica subsp. enterica serovar Typhi MTCC 733 by agar streak dilution method; assay type: functional
Pseudomonas aeruginosa [21] = assay: Antimicrobial activity against Pseudomonas aeruginosa MTCC 741 by agar streak dilution method; assay type: functional
Staphylococcus aureus [22] = assay: Antimicrobial activity against Staphylococcus aureus MTCC 96 by agar streak dilution method; assay type: functional
Bacillus cereus [23] = assay: Antimicrobial activity against Bacillus cereus MTCC 619 by agar streak dilution method; assay type: functional
Escherichia coli [24] = assay: Antimicrobial activity against Escherichia coli MTCC 739 by agar streak dilution method; assay type: functional
[25] = system: Mycobacterium tuberculosis; assay: Antimicrobial activity against Mycobacterium tuberculosis H37Rv by Lowenstein and Jensen method; assay type: functional; conditions: for MIC: Mycobacterium tuberculosis, H37Rv
[26] = system: Mycobacterium tuberculosis; assay: Antimicrobial activity against Mycobacterium tuberculosis H37Rv by BACTEC MGIT method; assay type: functional; conditions: for MIC: Mycobacterium tuberculosis, H37Rv
Candida albicans [27] = assay: Antimicrobial activity against Candida albicans MTCC 183 by paper-disk diffusion method; assay type: functional
[28] = system: Mycobacterium tuberculosis; assay: Antimicrobial activity against Mycobacterium tuberculosis H37Rv at 100 ug/ml by BACTEC MGIT method; assay type: functional, organism-based

Structure (SMILES)	MIC (Candida albicans [1]) [µg/mL]	inhibition zone (IZ) (Aspergillus clavatus [2]) [mm]	inhibition zone (IZ) (Aspergillus niger [3]) [mm]	inhibition zone (IZ) (Aspergillus fumigatus [4]) [mm]	inhibition zone (IZ) (Pseudomonas aeruginosa [5])	inhibition zone (IZ) (Shigella flexneri [6]) [mm]	inhibition zone (IZ) (Salmonella typhi [8]) [mm]	inhibition zone (IZ) (Klebsiella pneumoniae [9]) [mm]	inhibition zone (IZ) (Pseudomonas aeruginosa [10]) [mm]	inhibition zone (IZ) (Escherichia coli [12]) [mm]	inhibition zone (IZ) (Staphylococcus aureus [13]) [mm]	MIC (Aspergillus niger [16]) [µg/mL]	MIC (Proteus vulgaris [17]) [µg/mL]	MIC (Shigella flexneri [18]) [µg/mL]	MIC (Salmonella typhi [20]) [µg/mL]	MIC (Staphylococcus aureus [22]) [µg/mL]	MIC (Bacillus cereus [23]) [µg/mL]	inhibition (INH) [26] [%]	MIC [26] [µg/mL]	inhibition zone (IZ) (Candida albicans [27]) [mm]	further results
N#Cc1ccc(Nc2nc(Oc3ncnc4ccccc34)nc(N3CCN(C(c4ccccc4)c4ccc(Cl)cc4)CC3)n2)cc1C(F)(F)F (configuration not stated)	25 (≈ 36 µM)	24	24	24	inactive	24	27	24	28	26	29	12.5 (≈ 18 µM)	50 (≈ 72 µM)	50 (≈ 72 µM)	6.25 (≈ 9 µM)	6.25 (≈ 9 µM)	6.25 (≈ 9 µM)	99	6.25 (≈ 9 µM)	24	inhibition zone (IZ) (Proteus vulgaris [7]): 23 mm; inhibition zone (IZ) (Bacillus cereus [11]): 26 mm; MIC (Aspergillus clavatus [14]): 12.5 µg/mL (≈ 18 µM); MIC (Aspergillus fumigatus [15]): 12.5 µg/mL (≈ 18 µM); MIC (Klebsiella pneumoniae [19]): 25 µg/mL (≈ 36 µM); MIC (Pseudomonas aeruginosa [21]): 6.25 µg/mL (≈ 9 µM); MIC (Escherichia coli [24]): 25 µg/mL (≈ 36 µM); inhibition (percent inhibition) [25]: 99%; MIC [25]: 6.25 µg/mL (≈ 9 µM)
N#Cc1ccc(Nc2nc(Oc3ncnc4ccccc34)nc(N3CCN(c4ccccc4F)CC3)n2)cc1C(F)(F)F	12.5 (≈ 21.3 µM)	24	26	22	inactive	25	26	24	25	24	27	3.12 (≈ 5.31 µM)	25 (≈ 42.6 µM)	25 (≈ 42.6 µM)	12.5 (≈ 21.3 µM)	6.25 (≈ 10.6 µM)	6.25 (≈ 10.6 µM)	–	> 6.25	26	inhibition zone (IZ) (Proteus vulgaris [7]): 23 mm; inhibition zone (IZ) (Bacillus cereus [11]): 26 mm; MIC (Aspergillus clavatus [14]): 25 µg/mL (≈ 42.6 µM); MIC (Aspergillus fumigatus [15]): 25 µg/mL (≈ 42.6 µM); MIC (Klebsiella pneumoniae [19]): 25 µg/mL (≈ 42.6 µM); MIC (Pseudomonas aeruginosa [21]): 25 µg/mL (≈ 42.6 µM); inhibition [28]: inactive; MIC (Escherichia coli [24]): 50 µg/mL (≈ 85.1 µM); inhibition (percent inhibition) [25]: 98%; MIC [25]: 12.5 µg/mL (≈ 21.3 µM)
NC(=O)c1cnccn1 [PYRAZINAMIDE]	–	–	–	–	–	–	–	–	–	–	–	–	–	–	–	–	–	99	6.25 (≈ 50.8 µM)	–	–
N#Cc1ccc(Nc2nc(Oc3ncnc4ccccc34)nc(N3CCN(c4cccc(C(F)(F)F)c4)CC3)n2)cc1C(F)(F)F	6.25 (≈ 9.8 µM)	25	26	24	inactive	27	25	25	28	25	29	3.12 (≈ 4.89 µM)	6.25 (≈ 9.8 µM)	12.5 (≈ 19.6 µM)	25 (≈ 39.2 µM)	3.12 (≈ 4.89 µM)	3.12 (≈ 4.89 µM)	99	6.25 (≈ 9.8 µM)	27	inhibition zone (IZ) (Proteus vulgaris [7]): 26 mm; inhibition zone (IZ) (Bacillus cereus [11]): 28 mm; MIC (Aspergillus clavatus [14]): 6.25 µg/mL (≈ 9.8 µM); MIC (Aspergillus fumigatus [15]): 12.5 µg/mL (≈ 19.6 µM); MIC (Klebsiella pneumoniae [19]): 6.25 µg/mL (≈ 9.8 µM); MIC (Pseudomonas aeruginosa [21]): 6.25 µg/mL (≈ 9.8 µM); MIC (Escherichia coli [24]): 25 µg/mL (≈ 39.2 µM); inhibition (percent inhibition) [25]: 99%; MIC [25]: 6.25 µg/mL (≈ 9.8 µM)
N#Cc1ccc(Nc2nc(Oc3ncnc4ccccc34)nc(N3CCN(c4cccc(Cl)c4Cl)CC3)n2)cc1C(F)(F)F	6.25 (≈ 9.79 µM)	23	25	23	inactive	26	26	24	24	24	29	6.25 (≈ 9.79 µM)	6.25 (≈ 9.79 µM)	12.5 (≈ 19.6 µM)	12.5 (≈ 19.6 µM)	3.12 (≈ 4.89 µM)	6.25 (≈ 9.79 µM)	99	6.25 (≈ 9.79 µM)	27	inhibition zone (IZ) (Proteus vulgaris [7]): 26 mm; inhibition zone (IZ) (Bacillus cereus [11]): 25 mm; MIC (Aspergillus clavatus [14]): 25 µg/mL (≈ 39.2 µM); MIC (Aspergillus fumigatus [15]): 25 µg/mL (≈ 39.2 µM); MIC (Klebsiella pneumoniae [19]): 50 µg/mL (≈ 78.3 µM); MIC (Pseudomonas aeruginosa [21]): 12.5 µg/mL (≈ 19.6 µM); MIC (Escherichia coli [24]): 50 µg/mL (≈ 78.3 µM); inhibition (percent inhibition) [25]: 99%; MIC [25]: 6.25 µg/mL (≈ 9.79 µM)
N#Cc1ccc(Nc2nc(Oc3ncnc4ccccc34)nc(N3CCN(c4ccccc4Cl)CC3)n2)cc1C(F)(F)F	12.5 (≈ 20.7 µM)	22	22	24	inactive	27	26	23	24	22	26	50 (≈ 82.8 µM)	25 (≈ 41.4 µM)	12.5 (≈ 20.7 µM)	6.25 (≈ 10.3 µM)	12.5 (≈ 20.7 µM)	50 (≈ 82.8 µM)	–	> 6.25	25	inhibition zone (IZ) (Proteus vulgaris [7]): 24 mm; inhibition zone (IZ) (Bacillus cereus [11]): 24 mm; MIC (Aspergillus clavatus [14]): 50 µg/mL (≈ 82.8 µM); MIC (Aspergillus fumigatus [15]): 12.5 µg/mL (≈ 20.7 µM); MIC (Klebsiella pneumoniae [19]): 100 µg/mL (≈ 166 µM); MIC (Pseudomonas aeruginosa [21]): 25 µg/mL (≈ 41.4 µM); inhibition [28]: inactive; MIC (Escherichia coli [24]): 100 µg/mL (≈ 166 µM); inhibition (percent inhibition) [25]: 97%; MIC [25]: 25 µg/mL (≈ 41.4 µM)
CC[C@@H](CO)NCCN[C@@H](CC)CO [ETHAMBUTOL]	–	–	–	–	–	–	–	–	–	–	–	–	–	–	–	–	–	99	3.12 (≈ 15.3 µM)	–	–
O=C(O)c1cn(C2CC2)c2cc(N3CCNCC3)c(F)cc2c1=O [CIPROFLOXACIN]	1.56 (≈ 4.71 µM)	–	30	29	inactive	32	30	33	33	32	30	1.56 (≈ 4.71 µM)	0.39 (≈ 1.18 µM)	1.56 (≈ 4.71 µM)	0.39 (≈ 1.18 µM)	1.56 (≈ 4.71 µM)	0.39 (≈ 1.18 µM)	–	–	33	–
CO[C@H]1/C=C/O[C@@]2(C)Oc3c(C)c(O)c4c(O)c(c(/C=N/N5CCN(C)CC5)c(O)c4c3C2=O)NC(=O)/C(C)=C\C=C\[C@H](C)[C@H](O)[C@@H](C)[C@@H](O)[C@@H](C)[C@H](OC(C)=O)[C@@H]1C [RIFAMPIN]	–	–	–	–	–	–	–	–	–	–	–	–	–	–	–	–	–	99	0.25 (≈ 0.304 µM)	–	–
NNC(=O)c1ccncc1 [ISONIAZID]	–	–	–	–	–	–	–	–	–	–	–	–	–	–	–	–	–	–	0.2 (≈ 1.46 µM)	–	–
COc1ccc(CN2CCN(c3nc(Nc4ccc(C#N)c(C(F)(F)F)c4)nc(Oc4ncnc5ccccc45)n3)CC2)c(OC)c1OC	12.5 (≈ 18.6 µM)	25	25	25	inactive	24	25	26	26	28	29	6.25 (≈ 9.28 µM)	6.25 (≈ 9.28 µM)	25 (≈ 37.1 µM)	25 (≈ 37.1 µM)	3.12 (≈ 4.63 µM)	3.12 (≈ 4.63 µM)	99	6.25 (≈ 9.28 µM)	26	inhibition zone (IZ) (Proteus vulgaris [7]): 25 mm; inhibition zone (IZ) (Bacillus cereus [11]): 27 mm; MIC (Aspergillus clavatus [14]): 6.25 µg/mL (≈ 9.28 µM); MIC (Aspergillus fumigatus [15]): 6.25 µg/mL (≈ 9.28 µM); MIC (Klebsiella pneumoniae [19]): 6.25 µg/mL (≈ 9.28 µM); MIC (Pseudomonas aeruginosa [21]): 12.5 µg/mL (≈ 18.6 µM); MIC (Escherichia coli [24]): 6.25 µg/mL (≈ 9.28 µM); inhibition (percent inhibition) [25]: 99%; MIC [25]: 6.25 µg/mL (≈ 9.28 µM)
CC1CC(C)CN(c2nc(Nc3ccc(C#N)c(C(F)(F)F)c3)nc(Oc3ncnc4ccccc34)n2)C1 (configuration not stated)	25 (≈ 48 µM)	25	22	23	inactive	22	26	26	27	27	27	25 (≈ 48 µM)	6.25 (≈ 12 µM)	100 (≈ 192 µM)	25 (≈ 48 µM)	6.25 (≈ 12 µM)	12.5 (≈ 24 µM)	99	6.25 (≈ 12 µM)	24	inhibition zone (IZ) (Proteus vulgaris [7]): 26 mm; inhibition zone (IZ) (Bacillus cereus [11]): 26 mm; MIC (Aspergillus clavatus [14]): 6.25 µg/mL (≈ 12 µM); MIC (Aspergillus fumigatus [15]): 25 µg/mL (≈ 48 µM); MIC (Klebsiella pneumoniae [19]): 6.25 µg/mL (≈ 12 µM); MIC (Pseudomonas aeruginosa [21]): 12.5 µg/mL (≈ 24 µM); MIC (Escherichia coli [24]): 6.25 µg/mL (≈ 12 µM); inhibition (percent inhibition) [25]: 99%; MIC [25]: 6.25 µg/mL (≈ 12 µM)
